Assay results published in US8686224B2, “Plant defense signal peptides” (priority 2005, dated 2014).

Experiments:
[1] = tested on: OsPEPR1; assay: Medium alkalinization of transgenic tobacco cells expressing OsPEPR1; assay type: cell-based, rice
Description: We identified rice homologues of AtPEPR1 in the Rice Annotation Project database (see the website located at www.rapdb.dna.affrc.go.jp). The rice homologues, OsPEPR1 (Os08g0446200) and OsPEPR2 (Os08g0446400), have 60% and 62% amino acid similarities, respectively. The OsPEPR1 has 26 LRRs in the extracellular region, which is the same as AtPEPR1. The OsPEPR2 has a shorter extracellular region with 22 LRRs. Transgenic tobacco cells expressing either OsPEPR1 or OsPEPR2 were created to examine the possibility of receptor binding to monocot peptides. OsPep3a, OsPep3b, OsPep3c, ZmPep1 and ZmPep4a were supplied to suspension cultured transgenic tobacco cells, and medium pH was measured. OsPep3a, OsPep3b, ZmPep1 and ZmPep4a caused medium alkalinization in OsPEPR1 expressing cells with a 1.2 pH unit increase and a half-maximal activity of 0.25 nM.

[2] = tested on: AtproPep1 gene expression; assay: Hormone treatments of intact plants, RT-PCR of AtproPep1 and paralogs; assay type: in vivo, Arabidopsis thaliana
Description: Plant stress and hormone treatments. To examine effects of cold stress, plants were placed in a refrigerated growth chamber set to 2° C. To simulate drought stress conditions, plants grown under standard growth chamber conditions were grown without watering. Methyl jasmonate (Bedoukian Research Inc., Danbury Conn.) was applied as a 625 μM solution in 0.1% Triton X-100 to the upper surface of leaves and the plants were incubated in plexiglass boxes. Methyl salicylate (Sigma-Aldrich, St. Louis Mo.), was applied to leaf surfaces at 2 mM in a 0.1% Triton X-100 solution. Ethephon (Phytotechnology Laboratories, Shawnee Mission Kans.) was sprayed on plants as a 7 mM solution in 0.1% Triton X-100 (Sigma-Aldrich, St. Louis Mo.). ABA effects were analyzed by spraying plants with a 100 μM solution (mixed isomer, Sigma-Aldrich, St. Louis Mo.) in 0.1% Triton X-100 (Denekamp and Smeekens, Plant Physiol. 132, 1415-1423, 2003).
Semi-quantitative RT-PCR analysis of relative gene expression levels. RNA was isolated using Trizol reagent and manufacturer's instructions (Invitrogen. Carlsbad Calif.), and 2 μg of RNA template was reverse transcribed with a RETROscript kit (Ambion, Austin Tex.). PCR reactions were carried out with ExTaq Hot Start polymerase and reagents (Fisher Scientific, Pittsburgh Pa.). The AtproPep1 forward and reverse primers with the respective sequences of 5′ […] 3′ (SEQ ID NO: 59) and 5′ […] 3′ (SEQ ID NO: 60) generated a 310 bp intron-spanning product. Primers to β-tubulin (At5g62690) of 5′ […] 3′ (SEQ ID NO: 73) and 5′ […] 3′ (SEQ ID NO: 74) generated a 681 base pair intron-spanning product. An initial denaturing/polymerase activating step of 5 minutes at 94° C. was followed by 31 repetitions of the following three steps: a thirty second denaturation phase at 94° C., a thirty second annealing period at 55.5° C., and a one minute elongation step at 72° C. The amplification program was terminated with a 10 minute final 72° C. elongation phase.
Expression analysis of AtproPep1 in response to abiotic and biotic cues. As a first step in seeking a possible function for AtproPep1 and its encoded peptide, the basal expression level of the gene was assessed in leaves, stems, roots and flowers of Arabidopsis plants was studied using semi-quantitative RT-PCR analysis of AtproPep1 gene expression in response to treatment of leaves with MeJA, ethephon, MeSA, and AtPep1. The relative abundance of the proAtPep1 transcript was estimated from the expression of the β-tubulin gene as a control. Leaves were wounded by crushing once across the mid-vein with a hemostat. Plants were sprayed with a 250 μM solution of MeJA in 0.1% Triton X-100; with a […] solution of MeSA in 0.1% Triton X-100 or with a 7 mM solution of ethephon in 0.1% Triton X-100. […] Total RNA was extracted and analyzed.

OsPEPR1, sequence (as listed by the source): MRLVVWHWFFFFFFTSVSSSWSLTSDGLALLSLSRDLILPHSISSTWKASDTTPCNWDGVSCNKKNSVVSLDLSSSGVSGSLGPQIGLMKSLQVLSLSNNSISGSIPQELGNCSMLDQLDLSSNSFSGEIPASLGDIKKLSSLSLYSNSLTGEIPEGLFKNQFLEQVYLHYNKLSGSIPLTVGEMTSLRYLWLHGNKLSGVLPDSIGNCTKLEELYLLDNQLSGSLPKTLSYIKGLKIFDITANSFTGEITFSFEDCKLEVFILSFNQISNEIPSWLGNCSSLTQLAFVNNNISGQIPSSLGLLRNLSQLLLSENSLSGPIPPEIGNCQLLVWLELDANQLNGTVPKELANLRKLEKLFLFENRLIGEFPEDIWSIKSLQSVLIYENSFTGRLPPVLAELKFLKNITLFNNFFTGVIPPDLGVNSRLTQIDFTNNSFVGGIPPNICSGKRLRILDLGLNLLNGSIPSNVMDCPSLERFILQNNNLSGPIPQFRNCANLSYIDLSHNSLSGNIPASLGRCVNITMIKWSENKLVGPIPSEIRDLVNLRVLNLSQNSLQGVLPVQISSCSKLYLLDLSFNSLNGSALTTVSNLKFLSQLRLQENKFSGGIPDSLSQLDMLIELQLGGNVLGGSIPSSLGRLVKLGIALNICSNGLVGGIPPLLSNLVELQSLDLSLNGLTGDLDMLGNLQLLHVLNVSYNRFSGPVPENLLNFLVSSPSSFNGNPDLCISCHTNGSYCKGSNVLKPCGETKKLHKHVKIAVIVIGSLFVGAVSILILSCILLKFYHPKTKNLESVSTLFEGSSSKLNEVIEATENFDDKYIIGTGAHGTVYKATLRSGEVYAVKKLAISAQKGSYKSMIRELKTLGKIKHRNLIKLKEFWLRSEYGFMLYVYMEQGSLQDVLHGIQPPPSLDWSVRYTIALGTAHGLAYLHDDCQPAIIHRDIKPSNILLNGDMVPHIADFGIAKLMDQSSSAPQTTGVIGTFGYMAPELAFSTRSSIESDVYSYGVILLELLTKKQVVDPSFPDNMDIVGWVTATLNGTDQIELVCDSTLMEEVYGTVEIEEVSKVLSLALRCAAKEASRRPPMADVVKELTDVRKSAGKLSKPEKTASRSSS

RRPTPPGGAGPREGSGGRGGVIH [OsPep3b, RRPTPPGGAGPREGSGGRGGVIH]
medium pH increase [1]: 1.2 pH unit | EC50 ([1]; read-out: half-maximal activity): 0.25 nM

O=P(O)(O)CCCl [ethephon]
expression of the AtproPep1 gene in intact plants ([2]; sprayed: MeJA 250 μM, ethephon 7 mM, within an hour): induced a strong expression

COC(=O)c1ccccc1O [MeSA, methyl salicylate, reference compound]
expression of AtproPep1 paralogs after spraying ([2]; At5g64905, At5g64900, At5g64890, At5g09980): strongly induced only two of the genes
